Experimental data published in the NIST ThermoML archive (doi:10.1021/acs.jced.9b00607).

Test: wn = mass fraction of the nth substance listed
Conditions: 102 kPa, Liquid; for viscosity: Falling or rolling sphere viscometry; for mass density: Vibrating tube method

CN(CCO)CCO [N-methyldiethanolamine] + OCCO
Conditions | mass density [kg/m3] | viscosity [mPa·s]
283.15 K, w1 = 0.3 | 1101.8 | 64.36
283.15 K, w1 = 0.4 | 1095.1 | 80.69
283.15 K, w1 = 0.5 | 1088.1 | 99.66
283.15 K, w1 = 0.7 | 1073.3 | –
283.15 K, w1 = 0.8 | 1065.4 | 164.27
283.15 K, w1 = 0.9 | 1057.2 | 181.33
283.15 K, w1 = 1 | 1048 | 198.15
298.15 K, w1 = 0.3 | 1090.9 | 30.43
298.15 K, w1 = 0.4 | 1084.3 | 36.57
298.15 K, w1 = 0.5 | 1077.2 | 43.55
298.15 K, w1 = 0.7 | 1062.1 | 58.07
298.15 K, w1 = 0.8 | 1054 | 66.59
298.15 K, w1 = 0.9 | 1045.6 | 69.21
298.15 K, w1 = 1 | 1036.8 | 74.87
313.15 K, w1 = 0.3 | 1079.9 | 15.89
313.15 K, w1 = 0.4 | 1073.2 | 18.52
313.15 K, w1 = 0.5 | 1066 | 21.58
313.15 K, w1 = 0.7 | 1050.8 | 27.72
313.15 K, w1 = 0.8 | 1042.6 | 30.49
313.15 K, w1 = 0.9 | 1034.1 | 33.05
313.15 K, w1 = 1 | 1025.3 | 35.05
323.15 K, w1 = 0.3 | 1072.5 | 10.8
323.15 K, w1 = 0.4 | 1065.7 | 12.43
323.15 K, w1 = 0.5 | 1058.5 | 14.2
323.15 K, w1 = 0.7 | 1043.1 | 17.75
323.15 K, w1 = 0.8 | 1034.9 | 19.48
323.15 K, w1 = 0.9 | 1026.4 | 20.91
323.15 K, w1 = 1 | 1017.7 | 21.96
333.15 K, w1 = 0.3 | 1065.1 | 7.82
333.15 K, w1 = 0.4 | 1058.1 | 8.82
333.15 K, w1 = 0.5 | 1050.9 | 9.94
333.15 K, w1 = 0.7 | 1035.4 | 12.17
333.15 K, w1 = 0.8 | 1027.2 | 13.26
333.15 K, w1 = 0.9 | 1018.7 | 14.12
333.15 K, w1 = 1 | 1010 | 14.83
343.15 K, w1 = 0.3 | 1057.4 | 5.75
343.15 K, w1 = 0.4 | 1050.5 | 6.45
343.15 K, w1 = 0.5 | 1043.1 | 7.17
343.15 K, w1 = 0.7 | 1027.5 | 8.61
343.15 K, w1 = 0.8 | 1019.3 | 9.26
343.15 K, w1 = 0.9 | 1010.9 | 9.81
343.15 K, w1 = 1 | 1002.2 | 10.29
353.15 K, w1 = 0.3 | 1049.7 | 4.44
353.15 K, w1 = 0.4 | 1042.7 | 4.89
353.15 K, w1 = 0.5 | 1035.3 | 5.36
353.15 K, w1 = 0.7 | 1019.7 | 6.32
353.15 K, w1 = 0.8 | 1011.5 | 6.76
353.15 K, w1 = 0.9 | 1003 | 7.13
353.15 K, w1 = 1 | 994.5 | 7.4
